Results published in PubChem BioAssay (NCI).
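1) Cells in 96-well plates. 2) Compound, 48 h, 5 concentrations. 3) Linear interpolation between surrounding doses. 4) Unreached endpoint = highest concentration. The concentration for full growth arrest is given as TGI.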

Tests used:
Test in all cases: NCI-60 cell line screen, 48 h
[1] = system: NCI-H226 lung
[2] = system: PC-3 prostate
[3] = system: CCRF-CEM leukemia
[4] = system: IGROV1 ovarian
[5] = system: T-47D breast
[6] = system: U251 CNS
[7] = system: HT29 colon
[8] = system: RXF 393 renal
[9] = system: SK-OV-3 ovarian
[10] = system: A498 renal

Work on `COc1cc2c3cc1Oc1c(O)c(OC)cc4c1[C@H](Cc1ccc(cc1)Oc1cc(ccc1O)C[C@H]3N(C)CC2)N(C)CC4` yielded a TGI [1] of 58.8 µM, a TGI [2] of 27.1 µM and a TGI [3] of 42.7 µM. The TGI [4] was 36.1 µM, the TGI [5] was 46.1 µM and the TGI [6] was 28 µM. It also gave a TGI [7] of 18.5 µM, a TGI [8] of 13.9 µM and a TGI [9] of 79.3 µM. The TGI [10] was 31.5 µM.

With `COc1ccc2nc3cc(Cl)ccc3c(NCCCCCC(=O)NC(COc3cnc4c(ccc5cccnc54)c3)COc3cnc4c(ccc5cccnc54)c3)c2c1` the TGI [1] was 21.8 µM, the TGI [2] was 26.8 µM and the TGI [3] was 12.6 µM. For the same compound, the TGI [4] was > 100 µM, the TGI [5] was 28.6 µM and the TGI [6] was 21.8 µM. For the same compound, the TGI [7] was > 100 µM, the TGI [8] was 30.2 µM and the TGI [9] was > 100 µM. For the same compound, the TGI [10] was 62.8 µM.

With `Oc1ccc(/C=C\c2nnc(/C=C\c3ccc(O)c(O)c3)s2)cc1O` the TGI [1] was 20 µM, the TGI [2] was 29.3 µM and the TGI [3] was 2.16 µM. The TGI [4] was 20.7 µM, the TGI [5] was 5.37 µM and the TGI [6] was 13.5 µM. The TGI [7] was > 75.8 µM, the TGI [8] was 18.5 µM and the TGI [9] was 26.5 µM. The TGI [10] was 26.2 µM.

For `Cc1ccc(N=Nc2c(C)nn(C(=O)CC(=O)Nc3ccccc3)c2C)cc1C`, the TGI [1] was > 100 µM, the TGI [2] was > 100 µM and the TGI [3] was > 100 µM. For the same compound, the TGI [4] was > 100 µM, the TGI [5] was > 100 µM and the TGI [6] was > 100 µM. The TGI [7] was > 100 µM, the TGI [8] was > 100 µM and the TGI [9] was > 100 µM. For the same compound, the TGI [10] was > 100 µM.

For `COc1ccc2c(c1)O[C@@H]1C(O)Oc3cc(OC)c(OC)cc3[C@]1(O)C2=O` (stereo not given in full), the TGI [1] was 83.9 µM, the TGI [2] was > 100 µM and the TGI [3] was > 100 µM. The TGI [4] was > 100 µM, the TGI [5] was > 100 µM and the TGI [6] was > 100 µM. For the same compound, the TGI [7] was > 100 µM, the TGI [8] was > 100 µM and the TGI [9] was > 100 µM. The TGI [10] was > 100 µM.

With `Cc1ccc(F)cc1NC(=O)O/N=C(\Cl)C(C)C` the TGI [1] was 28.5 µM, the TGI [2] was 33.4 µM and the TGI [3] was > 39.5 µM. The TGI [4] was 33.6 µM, the TGI [5] was 33.6 µM and the TGI [6] was > 56.4 µM. It also gave a TGI [7] of 37 µM, a TGI [8] of 9.51 µM and a TGI [9] of 36.9 µM. For the same compound, the TGI [10] was 40.9 µM.

`COC(=O)Cc1ccc2c(c1)Sc1ccc(CC(=O)OC)cc1N2C` was tested, and the TGI [1] was > 93.5 µM, the TGI [2] was > 100 µM and the TGI [3] was > 95.7 µM. For the same compound, the TGI [4] was > 100 µM, the TGI [5] was > 100 µM and the TGI [6] was > 100 µM. The TGI [7] was > 100 µM, the TGI [8] was > 100 µM and the TGI [9] was > 100 µM. The TGI [10] was 99.6 µM.

For `COc1cc(-c2nc3cc(F)ccc3s2)ccc1O`, the TGI [1] was > 100 µM, the TGI [2] was > 100 µM and the TGI [3] was > 100 µM. The TGI [4] was > 100 µM, the TGI [5] was 15.3 µM and the TGI [6] was > 100 µM. For the same compound, the TGI [7] was > 100 µM, the TGI [8] was > 100 µM and the TGI [9] was > 100 µM. It also gave a TGI [10] of 83.8 µM.

For `C=CC[C@H]1[C@@H](O[Si](C)(C)C(C)(C)C)[C@H](n2ccc(=O)[nH]c2=O)O[C@@H]1CO[Si](C)(C)C(C)(C)C`, the TGI [1] was 18.6 µM, the TGI [2] was 5.89 µM and the TGI [3] was 16 µM. It also gave a TGI [4] of 6.05 µM, a TGI [5] of 9.11 µM and a TGI [6] of 4.44 µM. The TGI [7] was 2.96 µM, the TGI [8] was 3.63 µM and the TGI [9] was 2.68 µM. For the same compound, the TGI [10] was 7.83 µM.

`NCCC(N)C(=O)O` (stereo not given) was tested, and the TGI [1] was > 100 µM, the TGI [2] was > 100 µM and the TGI [3] was > 100 µM. For the same compound, the TGI [4] was > 100 µM, the TGI [5] was > 100 µM and the TGI [6] was > 100 µM. The TGI [7] was > 100 µM, the TGI [8] was > 100 µM and the TGI [9] was > 100 µM. For the same compound, the TGI [10] was > 100 µM.

For `CC(C)(CN)CN`, the TGI [1] was > 100 µM, the TGI [2] was > 100 µM and the TGI [3] was > 100 µM. For the same compound, the TGI [4] was > 100 µM, the TGI [5] was > 100 µM and the TGI [6] was > 100 µM. The TGI [7] was > 100 µM, the TGI [8] was > 100 µM and the TGI [9] was > 100 µM. For the same compound, the TGI [10] was > 100 µM.

With `COc1ccc(N(C(=O)Nc2ccc(Cl)c(Cl)c2)c2ccccc2)cc1` the TGI [1] was > 10 µM, the TGI [2] was > 10 µM and the TGI [3] was > 10 µM. For the same compound, the TGI [4] was > 10 µM, the TGI [5] was > 10 µM and the TGI [6] was > 10 µM. For the same compound, the TGI [7] was > 10 µM, the TGI [8] was > 10 µM and the TGI [9] was > 10 µM. The TGI [10] was > 10 µM.

With `Cn1c(=O)c2c(nc(NCCCCl)n2CC(=O)O)n(C)c1=O` the TGI [1] was > 100 µM, the TGI [2] was > 100 µM and the TGI [3] was > 100 µM. The TGI [4] was > 100 µM, the TGI [5] was > 100 µM and the TGI [6] was > 100 µM. The TGI [7] was > 100 µM, the TGI [8] was > 100 µM and the TGI [9] was > 100 µM. The TGI [10] was > 100 µM.

For `OC(C1CCC=NN1C(O)(C(F)(F)F)C(F)(F)F)(C(F)(F)F)C(F)(F)F` (stereo not given), the TGI [1] was > 10 µM, the TGI [2] was > 10 µM and the TGI [3] was > 10 µM. The TGI [4] was > 10 µM, the TGI [5] was > 10 µM and the TGI [6] was > 10 µM. The TGI [7] was > 10 µM, the TGI [8] was > 10 µM and the TGI [9] was > 10 µM. The TGI [10] was > 10 µM.

`COc1ccc2c(c1)OC(c1cccnc1)C(c1ccccc1)C2=O` (stereo not given) was tested, and the TGI [1] was > 100 µM, the TGI [2] was > 100 µM and the TGI [3] was > 100 µM. The TGI [4] was > 100 µM, the TGI [5] was > 100 µM and the TGI [6] was > 100 µM. The TGI [7] was > 100 µM, the TGI [8] was > 100 µM and the TGI [9] was > 100 µM. For the same compound, the TGI [10] was > 100 µM.

Compound `O=[N+]([O-])c1cccc(-c2csc(N=Nc3c(O)[nH]c4ccccc34)n2)c1` has a TGI [1] of 47.6 µM, a TGI [2] of 99.4 µM and a TGI [3] of 56.5 µM. It also gave a TGI [4] of 54.6 µM, a TGI [5] of 82.4 µM and a TGI [6] of 40.4 µM. The TGI [7] was 44.5 µM, the TGI [8] was 77.9 µM and the TGI [9] was > 100 µM. The TGI [10] was 80.1 µM.

For `CC(C)(CO)CNc1cc(=O)[nH]c(N)n1`, the TGI [1] was > 100 µM, the TGI [2] was > 100 µM and the TGI [3] was > 100 µM. The TGI [4] was > 100 µM, the TGI [5] was > 100 µM and the TGI [6] was > 100 µM. For the same compound, the TGI [7] was > 100 µM, the TGI [8] was > 100 µM and the TGI [9] was > 100 µM. For the same compound, the TGI [10] was > 100 µM.

In the case of `CCCCOC(=O)C(=O)C(CCC(=O)c1ccc(C)cc1)C(=O)C=C(C)C` (stereo not given), the TGI [1] is reported as > 100 µM, the TGI [2] is reported as > 100 µM and the TGI [3] is reported as > 100 µM. For the same compound, the TGI [4] was > 100 µM, the TGI [5] was > 100 µM and the TGI [6] was > 100 µM. The TGI [7] was > 100 µM, the TGI [8] was > 100 µM and the TGI [9] was > 100 µM. For the same compound, the TGI [10] was > 100 µM.
